Measurements published in patent US11291620B2, “Avobenzone-dendrimer conjugates” (NEW YORK UNIVERSITY, priority 2018, dated 2022).

Columns and labels:
[1] = UV-Vis calibration: molar attenuation coefficient at 357 nM in isopropanol; format: physicochemical; details: run in triplicate, per mole of compound or dendrimer conjugate
Text: Avobenzone and the avobenzone conjugates were each dissolved in isopropanol and the titrations were run in triplicate to calculate extinction coefficients for each conjugate.
UV analysis was run on each conjugate to test the absorbance and degradation profile of each compound. The linker and scaffold must not shift the UV absorbance profile of the avobenzone if it is to be used as an additive in sunscreen formulations. Otherwise, it might no longer be active as a UV-A filter. UV calibrations were run for free avobenzone, avobenzone with linker, and each class and generation of dendrimer-avobenzone conjugate to compare the modified molecules to the original under the same conditions.
The molar attenuation coefficient for each compound was calculated at 357 nM, the absorption maximum in the UVA-1 range. […] Additionally, no shift was observed after ligation to the dendrimer scaffolds.
Extinction coefficient curves were taken in isopropanol, a protic solvent known to stabilize avobenzone under UV irradiation, allowing the curve to be run on a single sample of avobenzone per curve without loss of activity (Mturi et al., J. Phoochem. Pholobiol. 200:410-20 (2008), which is hereby incorporated by reference in its entirety).

[2] = UV decay / UV stability: change of absorbance under UV lamp over four hours; format: physicochemical; details: ethyl acetate, UV lamp 365 nM, peak at 357 nm, triplicate, average
Text: Avobenzone and the avobenzone conjugates were each dissolved in ethyl acetate, unless otherwise noted, and sealed in airtight quartz cuvettes. […] The avobenzone decay curves were run in triplicate and extra decay curves run in duplicate. UV stability experiments were run in triplicate in ethyl acetate (Mturi et al., J. Photochem. […] Unlike isopropanol, this solvent is known to encourage degradation and was chosen so that the experimental time scales would be similar to the time scale of sun exposure in vivo. Due to FDA regulations, all commercial sunscreens are labeled with instructions to reapply every two hours. The avobenzone systems were tested over four hours, double that time. The avobenzone, avobenzone linker, or avobenzone-dendrimer conjugate was dissolved in a small amount of isopropanol. In each study 90 μL of the stock solution was added to 3 mL of ethyl acetate and sealed in an airtight quartz cuvette. The initial absorptions were measured and the samples were sealed in quartz cuvettes and left under a UV lamp emitting at 365 nM. The absorption profile was measured at regular intervals.

molar attenuation coefficient (for the compound / conjugate) [1]	final absorbance as % of the initial absorbance [2]	Compound
1,039 M^−1 cm^−1	90.7±1.4%	COc1ccc(C(=O)CC(=O)c2ccc(C(C)(C)C)cc2)cc1 [bare avobenzone, 4-Tert-butyl-4′-methoxydibenzoylmethane]
2,899 M^−1 cm^−1	108±1.8%	COc1ccc(C(=O)C(CCCCCCCCCCCO)C(=O)c2ccc(C(C)(C)C)cc2)cc1 (stereo not shown) [avobenzone with linker]
